From patent publication US7534809B2, “Phospho-indoles as HIV inhibitors” (priority 2004, dated 2009)
In brackets after ≈: the same amount, converted by molar mass. Where two headings read alike, the source gives them in different places. Marks after values point to notes of the source that are not given here.

Key:
[1] = Metabolic stability in rat liver microsomes; format: in vitro ADME; details: 10 μM, 1 mg/mL microsomes, 37° C.
Text: (§1) The metabolic stability assay is to evaluate the stability of test compound in biological matrices. Data are useful in terms of understanding and predicting the elimination mechanisms of the test compound. CYP450-dependent metabolism of drugs can also vary widely from one species to another. Evaluating in vitro metabolism of a drug by liver microsomes from multiple species allows the comparison of metabolism in animal species to that of humans. This can help identify the most relevant animal model for PK and toxicology studies. The metabolic stability of a test compound was evaluated in vitro in liver microsomes of the rat, dog, monkey, and human. 10 μM of the test compound was pre-incubated for 5 min at 37° C. with 1 mg/mL liver microsomes in 0.1M Tris buffer, pH 7.4 containing 5 mM MgCl2 and 0.1 mM EDTA. Following pre-incubation, NADPH (final concentration of 3 mM) was added to start the reaction and samples incubated for 0 and 1 or 2 hours. After terminating the reaction, the supernatant was analyzed by HPLC-UV or LC/MS/MS for the disappearance of the parent and formation of metabolite(s). The %parent remaining was the peak area ratio of the 1 or 2 hr sample to the time 0 sample. In general, less metabolism (higher % parent values) is more desirable.

[2] = Metabolic stability in human liver microsomes; format: in vitro ADME; details: 10 μM, 1 mg/mL microsomes, 37° C.
Text: as §1

[3] = Human plasma protein binding, equilibrium dialysis; format: in vitro ADME; details: pooled human plasma, 37° C., about 6 hours, 1 μM drug, read-out: Protein binding (human plasma) % Free
Protocol: The human plasma protein binding was determined using the Equilibrium Dialysis method. Dialysis was conducted with pooled human plasma at 37° C. for approximately 6 hours at a drug concentration of 1 μM. At the end of the dialysis, buffer samples from the buffer-side of the dialysis cell were collected and analyzed by LC/MS/MS for free drug concentration. For NNRTIs, a lower protein binding is more desirable.

CYP2C9 = molecular target: T1, CYP2C9 (Homo sapiens, UniProt P11712); experiment: CYP450 inhibition, CYP2C9 P450-Glo assay kit; format: in vitro ADME
T1 construct: purchased Promega
Text: (§2) In vitro CYP450 inhibition screening allows for the prediction of potential drug-drug interactions. […] Potency and rank order of the inhibition can be assessed by determination of the IC50 values for a particular isozyme.
(§3) CYP3A4 inhibition was screened using the CYP3A4/BFC high throughput inhibitor screening kit (BD Biosciences), CYP2D6 inhibition was screened using the CYP2D6/AMMC high throughput inhibitor screening kit (BD Biosciences), and CYP2C9 inhibition was screened using the P450-Glo™ Assay kit (Promega).

[4] = Metabolic stability in dog liver microsomes; format: in vitro ADME; details: 10 μM, 1 mg/mL microsomes, 37° C.
Text: as §1

[5] = pH dependent aqueous solubility, shake-flask method; format: physicochemical; details: aqueous solution, thermodynamic from solid, saturated concentration 1 mM
Protocol: The aqueous solubility of each compound was determined by the conventional shake-flask method at a saturated concentration of 1 mM. The flask (vial) was shaken for 3 hrs at ambient temperature, and then centrifuged. The supernatant was analyzed by HPLC with UV detection for solubility determination. In general, a higher aqueous solubility is more desirable for drug candidates.

[6] = Metabolic stability in monkey liver microsomes; format: in vitro ADME; details: 10 μM, 1 mg/mL microsomes, 37° C.
Text: as §1

CYP3A4 = molecular target: T2, CYP3A4 (Homo sapiens, UniProt P08684); experiment: CYP450 inhibition, CYP3A4/BFC screening kit; format: in vitro ADME
T2 construct: purchased BD Biosciences
Text: as §2, §3

CYP2D6 = molecular target: T3, CYP2D6 (Homo sapiens, UniProt P10635); experiment: CYP450 inhibition, CYP2D6/AMMC screening kit; format: in vitro ADME
T3 construct: purchased BD Biosciences
Text: as §2, §3

[7] = In vitro metabolism in liver microsomes, metabolic pathway; format: in vitro ADME, rat, dog, monkey, and human; details: LC/MS/MS metabolite profiling
Protocol: Phase I biotransformation of a test compound is evaluated in this assay. Samples from the metabolic stability experiment were analyzed by LC/MS/MS for metabolite profiling and identification. Structures of metabolites were elucidated based on multiple MS/MS experiments such as full scan, neutral loss scan, and product ion scan. Metabolic pathways were then postulated based on the structures of major metabolites. For compounds from the phosphinate series, N-oxidation of the terminal pyridine ring is the predominant pathway, followed by the oxidation of the dimethyl-phenyl group, where the methyl group(s) is hydroxylated, further oxidized to an aldehyde, and finally to a carboxylic acid. The elucidation of metabolic pathways is important in terms of understanding the elimination mechanism of a test compound and assisting the design of new molecules with improved DM-PK profiles.

[8] = PK and oral bioavailability in the rat; format: in vivo, Sprague-Dawley rats; details: IV, 1.0 mg/kg
Protocol: (§4) The pharmacokinetics of a test compound was evaluated in Sprague-Dawley rats and Beagle dogs. A typical PK study involved dosing of 2 to 3 animals via a single IV bolus injection at 1 mg/kg and another 3 animals via a single oral gavage at 5 mg/kg. Blood samples were collected at various time points over a 24-hr period. Plasma was separated and analyzed for test compound and its metabolite(s) by LC/MS/MS. PK parameters were calculated from the plasma concentration—time profile using a noncompartmental method. Oral bioavailability (F) was calculated based on dose-normalized AUC values from oral and IV administration. Higher oral bioavailability values are better.

[9] = PK and oral bioavailability in the dog; format: in vivo, Beagle dogs; details: for half-life: PEG400, read-out: T½ (converted)
Protocol: as §4

[10] = pH 1, simulated gastric fluid, pH1, ambient temperature, read-out: Aqueous solubility pH1
[11] = pH 3, aqueous buffer, pH3, ambient temperature, read-out: Aqueous solubility pH3
[12] = pH 7, aqueous buffer, pH7, ambient temperature, read-out: Aqueous solubility pH7
[13] = pH 9, aqueous buffer, pH9, ambient temperature, read-out: Aqueous solubility pH9
[14] = Beagle, plasma, IV, 1.0 mg/kg, PEG400
[15] = Beagle, plasma, PO, 5.0 mg/kg, PEG400

T3 sequence (P10635 whole entry): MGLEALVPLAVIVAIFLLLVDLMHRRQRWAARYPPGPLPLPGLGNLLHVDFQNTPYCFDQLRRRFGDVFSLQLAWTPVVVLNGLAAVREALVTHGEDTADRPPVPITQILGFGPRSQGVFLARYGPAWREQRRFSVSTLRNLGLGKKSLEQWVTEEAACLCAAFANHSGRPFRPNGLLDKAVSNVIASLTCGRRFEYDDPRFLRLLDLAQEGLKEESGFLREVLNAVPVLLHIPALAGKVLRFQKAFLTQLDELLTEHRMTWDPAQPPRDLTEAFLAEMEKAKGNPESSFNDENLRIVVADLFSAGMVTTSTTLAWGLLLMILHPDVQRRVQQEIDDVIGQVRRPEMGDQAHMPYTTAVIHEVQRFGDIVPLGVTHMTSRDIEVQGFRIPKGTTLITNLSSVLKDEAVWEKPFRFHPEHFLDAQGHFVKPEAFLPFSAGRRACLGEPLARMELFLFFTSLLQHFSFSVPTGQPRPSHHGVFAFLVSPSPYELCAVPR
T2 sequence (P08684 whole entry): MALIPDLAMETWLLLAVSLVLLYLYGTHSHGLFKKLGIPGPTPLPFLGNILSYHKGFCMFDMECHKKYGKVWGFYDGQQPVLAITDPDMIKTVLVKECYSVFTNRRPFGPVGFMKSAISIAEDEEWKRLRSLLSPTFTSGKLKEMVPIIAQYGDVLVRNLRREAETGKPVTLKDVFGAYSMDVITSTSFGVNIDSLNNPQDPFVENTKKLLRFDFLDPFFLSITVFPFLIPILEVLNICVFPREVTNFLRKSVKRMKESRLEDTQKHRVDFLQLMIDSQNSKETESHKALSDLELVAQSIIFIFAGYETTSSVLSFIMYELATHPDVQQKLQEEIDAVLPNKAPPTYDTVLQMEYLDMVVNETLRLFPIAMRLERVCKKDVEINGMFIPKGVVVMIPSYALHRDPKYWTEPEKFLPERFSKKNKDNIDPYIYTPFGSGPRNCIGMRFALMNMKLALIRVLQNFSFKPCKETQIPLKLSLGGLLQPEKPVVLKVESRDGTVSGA
T1 sequence (P11712 whole entry): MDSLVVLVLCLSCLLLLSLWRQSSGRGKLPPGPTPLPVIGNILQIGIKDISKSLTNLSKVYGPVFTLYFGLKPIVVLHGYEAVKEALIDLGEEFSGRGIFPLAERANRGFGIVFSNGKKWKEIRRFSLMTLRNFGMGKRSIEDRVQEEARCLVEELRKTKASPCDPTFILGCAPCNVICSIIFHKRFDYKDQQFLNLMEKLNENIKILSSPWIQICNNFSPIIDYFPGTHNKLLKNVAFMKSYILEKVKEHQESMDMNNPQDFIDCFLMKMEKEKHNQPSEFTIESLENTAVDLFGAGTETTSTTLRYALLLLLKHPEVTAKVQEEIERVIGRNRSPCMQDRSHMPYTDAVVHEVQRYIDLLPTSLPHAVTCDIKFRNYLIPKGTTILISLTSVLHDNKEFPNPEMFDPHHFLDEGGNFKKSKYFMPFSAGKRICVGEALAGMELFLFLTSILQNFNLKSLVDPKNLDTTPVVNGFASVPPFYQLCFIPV

## COP(=O)(C1=C(C(=O)NCc2ccncc2)N=C2C=CC(Cl)=CC21)c1cc(C)cc(F)c1 (centres unmarked) [Compound P]
[1]
  Metabolic stability in liver microsomes % Parent after 2 hrs, Rat: 0%
[2]
  Metabolic stability in liver microsomes % Parent after 2 hrs, Human: 3%
[3]
  fraction unbound at 6 h, 1 μM: < 0.005
CYP2C9
  IC50: 1.68 µM
[4]
  Metabolic stability in liver microsomes % Parent after 2 hrs, Dog: 20%
[5]; [10]
  solubility at 3 h: > 1000 µM
[5]; [11]
  solubility at 3 h: 724 µM (≈ 342 µg/mL)
[5]; [12]
  solubility at 3 h: 24 µM (≈ 11.3 µg/mL)
[5]; [13]
  solubility at 3 h: 33.8 µM (≈ 15.9 µg/mL)
[6]
  Metabolic stability in liver microsomes % Parent after 2 hrs, Monkey: 3%
CYP3A4
  IC50: 770 nM
CYP2D6
  IC50: 2010 nM

## COP(=O)(c1cc(C)cc(F)c1)c1c(C(=O)NCc2cc[n+]([O-])cc2)[nH]c2ccc(Cl)cc12 (centres unmarked) [Compound G]
[1]
  Metabolic stability in liver microsomes % Parent after 2 hrs, Rat: 24%
[2]
  Metabolic stability in liver microsomes % Parent after 2 hrs, Human: 85%
[3]
  fraction unbound at 6 h, 1 μM: 0.016
CYP2C9
  IC50: 8.85 µM
[7]
  Metabolic pathway (in vitro): Hydroxylation to CH3OH— to CHO— to COOH—
[4]
  Metabolic stability in liver microsomes % Parent after 2 hrs, Dog: 77%
[6]
  Metabolic stability in liver microsomes % Parent after 2 hrs, Monkey: 41%
CYP3A4
  IC50: 1140 nM
CYP2D6
  IC50: > 10000 nM

## COP(=O)(C1=C(C(=O)NCc2ccncc2)N=C2C=CC(Cl)=CC21)c1cc(C)cc(C)c1 (centres unmarked) [Compound N]
[1]; 1 hr (footnote *)
  Metabolic stability in liver microsomes % Parent after 1 hr incubation, Rat: 1%*
[2]; 1 hr (footnote *)
  Metabolic stability in liver microsomes % Parent after 1 hr incubation, Human: 22%*
[3]
  fraction unbound at 6 h, 1 μM: 0.002
[4]; 1 hr (footnote *)
  Metabolic stability in liver microsomes % Parent after 1 hr incubation, Dog: 24%*
[8]; PEG400
  AUCinf/Dose: 125.9
  CI: 133.2 mL/min/kg
[8]; Sprague-Dawley, plasma, PEG400
  AUC(0-inf): 126 ng·h/mL
  AUC(0-t): 108 ng·h/mL
  Cmax: 119 ng/mL
[8]; Sprague-Dawley, plasma, PEG400, read-out: T½ (converted)
  half-life: 54 min
[8]; Sprague-Dawley, plasma, PEG400, read-out: Vss
  Vd: 9.59 L/kg
[5]; [10]
  solubility at 3 h: > 1000 µM
[5]; [11]
  solubility at 3 h: 231 µM (≈ 108 µg/mL)
[5]; [12]
  solubility at 3 h: 2.1 µM (≈ 0.983 µg/mL)
[5]; [13]
  solubility at 3 h: 1.7 µM (≈ 0.795 µg/mL)
[6]; 1 hr (footnote *)
  Metabolic stability in liver microsomes % Parent after 1 hr incubation, Monkey: 1%*
CYP3A4
  IC50: 660 nM
[9]; [14]
  AUC(0-inf): 970 ng·h/mL
  AUC(0-t): 924 ng·h/mL
  Cmax: 407 ng/mL
[9]; Beagle, plasma, IV, 1.0 mg/kg
  half-life: 252 min
[9]; Beagle, plasma, IV, 1.0 mg/kg, PEG400, read-out: Vss
  Vd: 4.08 L/kg
[9]; [15]
  AUC(0-inf): 139 ng·h/mL
  AUC(0-t): 116 ng·h/mL
  Cmax: 60.9 ng/mL
  Tmax: 42 min
[9]; Beagle, plasma, PO, 5.0 mg/kg
  half-life: 168 min
[9]; IV, 1.0 mg/kg, PEG400
  AUCinf/Dose: 970.1
  CI: 1192.3 mL/kg/h
[9]; PO, 5.0 mg/kg, PEG400
  AUCinf/Dose: 27.7
[9]; PO, 5.0 mg/kg, PEG400, oral bioavailability
  F: 2.9%
CYP2D6
  IC50: 2040 nM
